For this assay, the system named is B16-F10 cells. In words: MTT cytotoxicity of DOX-containing micelles. It is filed as cell-based. The settings on record: for IC50: read-out: IC50 (μM) of DOX equivalent. On the procedure: Briefly, 4000 cells were plated in 96-well plates and incubated for 24 h to allow the cells to attach. […] Living cells metabolize MTT to a dark formazan dye. The cell culture media was removed by aspiration and replaced with 200 μL DMSO. The absorbance was measured spectrophotometrically using a microplate reader at dual wavelengths of 570 nm and 650 nm. The data reported represent the means of triplicate measurement.

Where two headings read alike, the source gives them in different places.

Consider two molecules from US20100137206A1, “NOVEL LIGAND GUIDED BLOCK COPOLYMERS FOR TARGETED DRUG DELIVERY” (priority 2006, published 2010).

Turning to `COc1cccc2c1C(=O)c1c(O)c3c(c(O)c1C2=O)C[C@@](O)(C(=O)CO)C[C@@H]3O[C@H]1C[C@H](N)[C@H](O)[C@H](C)O1` [Free DOX, doxorubicin, reference compound], the half-inhibitory concentration (IC50) (as a rule, the midpoint of a concentration-inhibition curve) (24 h incubation) amounted to 0.417 µM and the IC50 (48 h incubation) was 0.204 µM.

As for “doxorubicin-conjugated acetal polyethylene oxide)-block-poly(caprolactone) [Acetal-PEO-b-PCL(DOX)]”, where the note is “24 h incubation”, the “fold difference of IC50 in comparison to free DOX” value turned out to be 14.3 fold and the IC50 amounted to 5.95 µM. Besides, where the note is “48 h incubation”, the “fold difference of IC50 in comparison to free DOX” value was 6.3 fold and the IC50 came to 1.28 µM.
